{"source": "patent US20170157251A1", "about": "“Bi-Specific Monovalent Diabodies That are Capable of Binding CD19 and CD3, and Uses Thereof” (MacroGenics, Inc., priority 2015, published 2017)", "key": {"[1]": {"test_system": "Raji/GF cells", "experiment": "Redirected killing of target tumor cells using human T cells, Raji/GF", "format": "cell-based", "details": "HBL-2, Raji/GF, Jeko-1; E:T 10:1"}, "[2]": {"test_system": "CD20+ B cells", "experiment": "Autologous B cell depletion in human PBMCs", "format": "cell-based", "source_text": "(§1) Potential differences in CD19 expression levels between human and cynomolgus monkey B cells may be another variable factor contributing to the apparent difference in potency."}, "[3]": {"test_system": "CD20+ B cells", "experiment": "Autologous B cell depletion in cynomolgus monkey PBMCs", "format": "cell-based", "source_text": "as §1"}, "[4]": {"test_system": "human T cells", "experiment": "Cytokine release by human T cells in the presence of Raji/GF target cells (ELISA)", "format": "cell-based", "details": "co-incubation with Raji/GF target cells"}, "[5]": {"test_system": "human CD4+ and CD8+ T cells", "experiment": "Human T cell activation (CD25, CD69) during redirected killing of Raji/GF cells", "format": "cell-based", "details": "Raji/GF target cells", "source_text": "(§2) The effect on T cells during DART-A-mediated redirected target cell (Raji/GF cells) lysis was characterized by evaluating expression of the T cell activation markers CD69 and CD25."}, "[6]": {"test_system": "cynomolgus monkey CD4+ and CD8+ T cells", "experiment": "Cynomolgus monkey T cell activation (CD25, CD69) during redirected killing of Raji/GF cells", "format": "cell-based", "details": "Raji/GF target cells", "source_text": "as §2"}, "[7]": {"test_system": "human T cells with JIMT-1 cells", "experiment": "Human T cell activation in the presence of CD19-negative JIMT-1 cells", "format": "cell-based"}, "[8]": {"test_system": "human CD8+ and CD4+ T cells", "experiment": "Intracellular granzyme B and perforin in T cells in CTL assay", "format": "cell-based", "details": "24 hours, Raji/GF target cells, E:T 10:1", "source_text": "Of note, the upregulation of granzyme B (FIG. 15A) and perforin (FIG. 15B) was higher in CD8+ T cells compared with CD4+ T cells, consistent with the expected higher CTL potency of CD8+ T cells."}, "[9]": {"test_system": "CFSE-labeled human T cells", "experiment": "Proliferation of CFSE-labeled human T cells co-cultured with HBL-2 target cells", "format": "cell-based", "details": "200 ng/mL, E:T 10:1, 72 hours", "description": "The expansion of T cells during effector:target cell co-engagement by […] was also evaluated, given that proliferation concomitant with T cell activation has been previously reported. […] Proliferation of CFSE-labeled T cells was monitored by levels of CFSE dilution over time by FACS analysis (FIGS. 16A-16B)."}, "[10]": {"test_system": "HBL-2 tumor cells", "experiment": "HBL-2 co-mix xenograft with activated human T cells", "format": "in vivo, NOD/SCID mice", "details": "by Day 13", "source_text": "(§3) In both studies, human T cells and tumor cells (HBL-2 or Raji) were combined at a ratio of 1:5 (1×10^6 and 5×10^6 cells, respectively) and injected SC into mice on Day 0."}, "[11]": {"test_system": "Raji tumor cells", "experiment": "Raji co-mix xenograft with activated human T cells", "format": "in vivo, NOD/SCID mice", "details": "end of the study (Day 28)", "source_text": "as §3"}, "[12]": {"test_system": "HBL-2 tumor cells", "experiment": "Established HBL-2 xenograft model with human PBMCs", "format": "in vivo, NSG B2m−/− mice", "source_text": "Mice were implanted with HBL-2 tumor cells (5×10^6 cells) intradermally (ID) on Day 0 followed by intraperitoneal (IP) injection of PBMCs (5×10^7 cells) on Day 4.\nHowever, prior to the third (Study Day 24) and fourth (Study Day 28) doses, the tumor volumes were 1469±162 and 848±74 mm^3, respectively, representing a 36% and 63%, respectively, decrease in tumor volume with respect to the peak volume recorded on Study Day 21 (FIG. 19B). The tumors continued to decrease in size to the extent that on Day 42, the average tumor volume was 248±52 mm^3, an 89% decrease in the tumor volume (FIG. 19B)."}, "[13]": {"experiment": "Human FcRn transgenic mouse pharmacokinetic study", "format": "in vivo", "details": "human FcRn transgenic mice", "description": "Three human mAbs were also evaluated in same test system for comparison and had terminal half-lives ranging from 58.7 to 102.7 hours."}, "[14]": {"test_system": "CLL malignant B cells (CD20+/CD5+)", "experiment": "Autologous depletion of malignant B cells in CLL primary patient PBMCs", "format": "cell-based, human", "description": "Due to the limited patient sample availability, only 2 concentrations (50 ng/mL and 200 ng/mL) were tested. The percentages of CLL malignant B cells (CD19+/CD5+ or CD20+/CD5+) and T cells (CD19−/CD5+ or CD4+ and CD8+) were measured by flow cytometry prior to treatment and following treatment for 3 and 6 days."}, "[15]": {"test_system": "Raji.luc lymphoma cells", "experiment": "Disseminated Raji.luc model in human PBMC-reconstituted mice, early treatment", "details": "12 doses"}, "[16]": {"test_system": "Raji.luc cells", "experiment": "Disseminated Raji.luc model in human PBMC-reconstituted mice, established tumor", "details": "treatment from Study Day 15, 9 doses; DART-A 0.16 μg/kg to 0.5 mg/kg, Control DART 1 0.1 mg/kg"}}, "data": [{"substance": "Control DART 1: control DART capable of binding to fluorescein and CD3 [reference compound]", "values": [{"measurement": "T cell redirected killing of target cells", "setting": "[1]", "value": "did not mediate T cell redirected killing of target cells"}, {"measurement": "CD20+ B cell depletion", "setting": "[2]", "value": "no B cell depletion was observed"}, {"measurement": "CD20+ B cell depletion", "setting": "[3]", "value": "no B cell depletion was observed"}, {"measurement": "cytokine production", "setting": "[4]", "value": "did not result in any detectable cytokine production"}, {"measurement": "T cell activation markers CD25 and CD69", "setting": "[5]", "value": "did not mediate induction of T cell activation markers"}, {"measurement": "T cell activation markers CD25 and CD69", "setting": "[6]", "value": "did not mediate induction of T cell activation markers"}, {"measurement": "T cell activation", "setting": "[7]", "value": "fail to mediate human T cell activation"}, {"measurement": "granzyme B and perforin levels in CD8+ and CD4+ T cells", "setting": "[8]", "value": "no upregulation of granzyme B or perforin was observed"}, {"measurement": "cells proliferating (CFSE dilution)", "setting": "[9]", "value": "no proliferation of CFSE-labeled T cells was observed"}, {"measurement": "average tumor volume", "setting": "[10]", "value": "approximately 1000 mm^3"}, {"measurement": "average tumor volume", "setting": "[11]", "value": "2968.2±200.0", "unit": "mm3"}, {"measurement": "average tumor volume", "setting": "[12]; Day 21 (2nd dose), treatment from Day 17, DART-A 0.5 mg/kg IV", "value": "1185.6±138.7", "unit": "mm^3"}, {"measurement": "average tumor volume", "setting": "[12]; Day 24 (3rd dose), treatment from Day 17", "value": "2623.7±351.5", "unit": "mm^3"}, {"measurement": "terminal half-life", "setting": "[13]", "value": 92.1, "unit": "h"}, {"measurement": "CD4+", "setting": "[14]; Day 3, 50 ng/mL", "value": 3.08, "unit": "%"}, {"measurement": "CD8+", "setting": "[14]; Day 3, 50 ng/mL", "value": 1.81, "unit": "%"}, {"measurement": "CD20+/CD5+", "setting": "[14]; Day 3, 50 ng/mL, E:T = 1:23", "value": 73.5, "unit": "%"}, {"measurement": "CD4+", "setting": "[14]; Day 3, 200 ng/mL", "value": 3.23, "unit": "%"}, {"measurement": "CD8+", "setting": "[14]; Day 3, 200 ng/mL", "value": 1.62, "unit": "%"}, {"measurement": "CD20+/CD5+", "setting": "[14]; Day 3, 200 ng/mL", "value": 72.9, "unit": "%"}, {"measurement": "CD4+", "setting": "[14]; Day 6, 50 ng/mL", "value": 3.54, "unit": "%"}, {"measurement": "CD8+", "setting": "[14]; Day 6, 50 ng/mL", "value": 2.26, "unit": "%"}, {"measurement": "CD20+/CD5+", "setting": "[14]; Day 6, 50 ng/mL", "value": 74.9, "unit": "%"}, {"measurement": "CD25+/CD4+", "setting": "[14]; Day 6, 50 ng/mL", "value": 1.4, "unit": "%"}, {"measurement": "CD25+/CD8+", "setting": "[14]; Day 6, 50 ng/mL", "value": 20.6, "unit": "%"}, {"measurement": "CD4+", "setting": "[14]; Day 6, 200 ng/mL", "value": 2.79, "unit": "%"}, {"measurement": "CD8+", "setting": "[14]; Day 6, 200 ng/mL", "value": 1.82, "unit": "%"}, {"measurement": "CD20+/CD5+", "setting": "[14]; Day 6, 200 ng/mL", "value": 73.4, "unit": "%"}, {"measurement": "CD25+/CD4+", "setting": "[14]; Day 6, 200 ng/mL", "value": 1.4, "unit": "%"}, {"measurement": "CD25+/CD8+", "setting": "[14]; Day 6, 200 ng/mL", "value": 14.3, "unit": "%"}, {"measurement": "B cell killing or upregulation of CD25", "setting": "[14]; through Day 6", "value": "no B cell killing or upregulation of CD25 was observed"}, {"measurement": "efficacy in dose-range finding study", "setting": "[15]; 0.16 μg/kg to 0.5 mg/kg", "value": "rapid progression of Raji.luc tumor growth"}, {"measurement": "Study Day by which all mice died or were humanely sacrificed", "setting": "[15]; 0.5 mg/kg IV", "value": "≤ 53", "unit": "Study Day"}, {"measurement": "tumor burden / tumor progression, dose-range finding", "setting": "[16]", "value": "slight delay of tumor progression"}]}]}
